Several values for one entry are separate records, joined by “and”; a condition that tells them apart may be missing. Equal entries are not always repeated.
Assay: molar heat capacity at constant pressure
Conditions: 101.33 kPa, Small (less than 1 g) adiabatic calorimetry

CCCCCCCCCCn1cc[n+](C)c1.O=S(=O)([N-]S(=O)(=O)C(F)(F)F)C(F)(F)F
Conditions | molar heat capacity at constant pressure
142.54 K, Metastable crystal | 368.4 J/K/mol
144.48 K, Crystal 2 | 358.2 J/K/mol
144.48 K, Metastable crystal | 372.5 J/K/mol
146.41 K, Metastable crystal | 376.6 J/K/mol
146.45 K, Crystal 2 | 361.5 J/K/mol
148.35 K, Metastable crystal | 380.7 J/K/mol
148.41 K, Crystal 2 | 365 J/K/mol
150 K, Crystal 2 | 367.5 J/K/mol
150 K, Metastable crystal | 384.3 J/K/mol
150.28 K, Metastable crystal | 384.8 J/K/mol
150.38 K, Crystal 2 | 368.2 J/K/mol
152.21 K, Metastable crystal | 389.1 J/K/mol
152.35 K, Crystal 2 | 371.7 J/K/mol
154.14 K, Metastable crystal | 393.4 J/K/mol
154.32 K, Crystal 2 | 375 J/K/mol
155.25 K, Crystal 2 | 376.4 J/K/mol
156.07 K, Metastable crystal | 397.7 J/K/mol
157.33 K, Crystal 2 | 380.2 J/K/mol
157.99 K, Metastable crystal | 402.2 J/K/mol
159.29 K, Crystal 2 | 383.4 J/K/mol
159.91 K, Metastable crystal | 406.6 J/K/mol
160 K, Crystal 2 | 384.7 J/K/mol
160 K, Metastable crystal | 406.8 J/K/mol
161.26 K, Crystal 2 | 387 J/K/mol
161.83 K, Metastable crystal | 411 J/K/mol
163.22 K, Crystal 2 | 390.1 J/K/mol
163.75 K, Metastable crystal | 415.7 J/K/mol
165.19 K, Crystal 2 | 393.6 J/K/mol
165.66 K, Metastable crystal | 420.2 J/K/mol
167.15 K, Crystal 2 | 397.2 J/K/mol
167.56 K, Metastable crystal | 425 J/K/mol
169.11 K, Crystal 2 | 400.7 J/K/mol
169.47 K, Metastable crystal | 429.9 J/K/mol
170 K, Crystal 2 | 402.3 J/K/mol
170 K, Metastable crystal | 431.2 J/K/mol
171.07 K, Crystal 2 | 404.1 J/K/mol
171.37 K, Metastable crystal | 434.6 J/K/mol
173.03 K, Crystal 2 | 407.6 J/K/mol
173.27 K, Metastable crystal | 440 J/K/mol
174.98 K, Crystal 2 | 411.2 J/K/mol
175.16 K, Metastable crystal | 445.5 J/K/mol
176.93 K, Crystal 2 | 414.8 J/K/mol
177.04 K, Metastable crystal | 451.4 J/K/mol
178.88 K, Crystal 2 | 418.4 J/K/mol
178.92 K, Metastable crystal | 458.1 J/K/mol
180 K, Crystal 2 | 420.7 J/K/mol
180 K, Metastable crystal | 462.6 J/K/mol
180.78 K, Metastable crystal | 466 J/K/mol
180.83 K, Crystal 2 | 422.1 J/K/mol
182.64 K, Metastable crystal | 476.8 J/K/mol
182.78 K, Crystal 2 | 426 J/K/mol
184.47 K, Metastable crystal | 489.9 J/K/mol
184.72 K, Crystal 2 | 430 J/K/mol
186.29 K, Metastable crystal | 501.9 J/K/mol
186.66 K, Crystal 2 | 434 J/K/mol
188.1 K, Metastable crystal | 507.1 J/K/mol
188.59 K, Crystal 2 | 438.2 J/K/mol
189.9 K, Metastable crystal | 510.3 J/K/mol
190 K, Crystal 2 | 440.9 J/K/mol
190 K, Metastable crystal | 510.3 J/K/mol
190.52 K, Crystal 2 | 442.2 J/K/mol
191.71 K, Metastable crystal | 511.1 J/K/mol
192.45 K, Crystal 2 | 446.2 J/K/mol
193.51 K, Metastable crystal | 514.8 J/K/mol
194.38 K, Crystal 2 | 450.4 J/K/mol
195.31 K, Metastable crystal | 521.6 J/K/mol
196.3 K, Crystal 2 | 455.3 J/K/mol
197.11 K, Metastable crystal | 529.9 J/K/mol
198.22 K, Crystal 2 | 460.2 J/K/mol
198.89 K, Metastable crystal | 539.6 J/K/mol
200 K, Crystal 2 | 463.2 J/K/mol
200 K, Metastable crystal | 546.2 J/K/mol
200.13 K, Crystal 2 | 465.1 J/K/mol
200.65 K, Metastable crystal | 550 J/K/mol
202.1 K, Crystal 2 | 470.5 J/K/mol
202.46 K, Metastable crystal | 568.9 J/K/mol
204.12 K, Crystal 2 | 476.2 J/K/mol
204.28 K, Metastable crystal | 599.4 J/K/mol
206.02 K, Metastable crystal | 683.4 J/K/mol
206.13 K, Crystal 2 | 482 J/K/mol
207.65 K, Metastable crystal | 752.9 J/K/mol
208.14 K, Crystal 2 | 487.2 J/K/mol
209.38 K, Metastable crystal | 552.2 J/K/mol
210 K, Crystal 2 | 489.1 J/K/mol
210 K, Metastable crystal | 513 J/K/mol
210.15 K, Crystal 2 | 491.5 J/K/mol
211.31 K, Metastable crystal | 512.9 J/K/mol
212.15 K, Crystal 2 | 495.6 J/K/mol
213.27 K, Metastable crystal | 512 J/K/mol
214.15 K, Crystal 2 | 500.9 J/K/mol
215.24 K, Metastable crystal | 515.4 J/K/mol
216.13 K, Crystal 2 | 507 J/K/mol
217.2 K, Metastable crystal | 523.2 J/K/mol
218.12 K, Crystal 2 | 513.6 J/K/mol
219.17 K, Metastable crystal | 551.8 J/K/mol
220 K, Crystal 2 | 519.8 J/K/mol
220.09 K, Crystal 2 | 520.6 J/K/mol
221.12 K, Metastable crystal | 812.2 J/K/mol
222.05 K, Crystal 2 | 528.2 J/K/mol
224 K, Crystal 2 | 536.2 J/K/mol
225.95 K, Crystal 2 | 545.3 J/K/mol
227.87 K, Crystal 2 | 555.4 J/K/mol
229.79 K, Crystal 2 | 567 J/K/mol
230 K, Crystal 2 | 569.2 J/K/mol
231.68 K, Crystal 2 | 580.6 J/K/mol
233.56 K, Crystal 2 | 594.7 J/K/mol
235.42 K, Crystal 2 | 610.3 J/K/mol
237.26 K, Crystal 2 | 624.9 J/K/mol
239.07 K, Crystal 2 | 641 J/K/mol
240 K, Crystal 2 | 651.3 J/K/mol
240.86 K, Crystal 2 | 665.1 J/K/mol
242.62 K, Crystal 2 | 694.9 J/K/mol
244.33 K, Crystal 2 | 733.6 J/K/mol
245.99 K, Crystal 2 | 789 J/K/mol
247.56 K, Crystal 2 | 885.2 J/K/mol
249 K, Crystal 1 | 1053 J/K/mol
249 K, Crystal 2 | 1053 J/K/mol
249.01 K, Crystal 1 | 1053 J/K/mol
250.61 K, Crystal 1 | 627.9 J/K/mol
252 K, Crystal 1 | 619.2 J/K/mol
252.45 K, Crystal 1 | 620.8 J/K/mol
254.29 K, Crystal 1 | 629.9 J/K/mol
256.12 K, Crystal 1 | 642.5 J/K/mol
257.94 K, Crystal 1 | 658.6 J/K/mol
259.72 K, Crystal 1 | 680.3 J/K/mol
260 K, Crystal 1 | 648.7 J/K/mol
261.48 K, Crystal 1 | 710 J/K/mol
263.19 K, Crystal 1 | 751.8 J/K/mol
263.96 K, Liquid | 730.6 J/K/mol
264.85 K, Crystal 1 | 795.1 J/K/mol
265.87 K, Liquid | 731.7 J/K/mol
266.46 K, Crystal 1 | 822.8 J/K/mol
267.69 K, Liquid | 733 J/K/mol
268.04 K, Crystal 1 | 872.1 J/K/mol
269.51 K, Liquid | 734.3 J/K/mol
269.56 K, Crystal 1 | 972.8 J/K/mol
270 K, Crystal 1 | 687.6 J/K/mol
271.33 K, Liquid | 735.9 J/K/mol
273.16 K, Liquid | 736.9 J/K/mol
274.98 K, Liquid | 738.2 J/K/mol
276.81 K, Liquid | 739.4 J/K/mol
277.33 K, Crystal 1 | 717.5 J/K/mol
277.33 K, Liquid | 739.7 J/K/mol
278.63 K, Liquid | 740.6 J/K/mol
278.84 K, Liquid | 741.1 J/K/mol
280 K, Liquid | 741.6 J/K/mol
280.45 K, Liquid | 741.8 J/K/mol
280.56 K, Liquid | 742.3 J/K/mol
282.28 K, Liquid | 743.2 J/K/mol and 742.8 J/K/mol
284 K, Liquid | 744.4 J/K/mol
284.1 K, Liquid | 744.5 J/K/mol
285.72 K, Liquid | 745.6 J/K/mol
285.92 K, Liquid | 745.7 J/K/mol
287.44 K, Liquid | 747.1 J/K/mol
287.75 K, Liquid | 746.9 J/K/mol
289.16 K, Liquid | 747.9 J/K/mol
289.57 K, Liquid | 748.4 J/K/mol
290 K, Liquid | 748.8 J/K/mol
290.88 K, Liquid | 749.4 J/K/mol
291.4 K, Liquid | 749.8 J/K/mol
292.6 K, Liquid | 750.6 J/K/mol
293.22 K, Liquid | 750.8 J/K/mol
294.32 K, Liquid | 751.9 J/K/mol
295.05 K, Liquid | 752.4 J/K/mol
296.04 K, Liquid | 753.2 J/K/mol
296.87 K, Liquid | 753.9 J/K/mol
297.77 K, Liquid | 754.3 J/K/mol
298.15 K, Liquid | 754.8 J/K/mol
298.69 K, Liquid | 755.1 J/K/mol
299.49 K, Liquid | 755.7 J/K/mol
300 K, Liquid | 756.2 J/K/mol
301.26 K, Liquid | 757.2 J/K/mol
303.08 K, Liquid | 758.7 J/K/mol
304.91 K, Liquid | 759.9 J/K/mol
306.73 K, Liquid | 761.3 J/K/mol
308.56 K, Liquid | 762.8 J/K/mol
310 K, Liquid | 763.8 J/K/mol
310.38 K, Liquid | 764.3 J/K/mol
312.21 K, Liquid | 765.5 J/K/mol
314.03 K, Liquid | 766.8 J/K/mol
315.86 K, Liquid | 768.4 J/K/mol
317.69 K, Liquid | 769.8 J/K/mol
319.51 K, Liquid | 771.1 J/K/mol
320 K, Liquid | 771.5 J/K/mol
321.34 K, Liquid | 772.8 J/K/mol
323.17 K, Liquid | 774.3 J/K/mol
324.99 K, Liquid | 775.7 J/K/mol
326.82 K, Liquid | 777.2 J/K/mol
328.64 K, Liquid | 778.5 J/K/mol
330 K, Liquid | 779.5 J/K/mol
330.47 K, Liquid | 779.9 J/K/mol
332.29 K, Liquid | 781.6 J/K/mol
334.12 K, Liquid | 783.1 J/K/mol
335.95 K, Liquid | 784.6 J/K/mol
337.77 K, Liquid | 786 J/K/mol
339.6 K, Liquid | 787.5 J/K/mol
340 K, Liquid | 787.7 J/K/mol
341.42 K, Liquid | 788.9 J/K/mol
343.25 K, Liquid | 789.9 J/K/mol
345.08 K, Liquid | 791.3 J/K/mol
346.91 K, Liquid | 793.1 J/K/mol
348.74 K, Liquid | 794.8 J/K/mol
350 K, Liquid | 796 J/K/mol
350.57 K, Liquid | 796.5 J/K/mol
352.4 K, Liquid | 797.8 J/K/mol
354.23 K, Liquid | 799.5 J/K/mol
356.06 K, Liquid | 801.2 J/K/mol
357.89 K, Liquid | 802.8 J/K/mol
359.72 K, Liquid | 804.3 J/K/mol
360 K, Liquid | 804.6 J/K/mol
361.55 K, Liquid | 806 J/K/mol
363.37 K, Liquid | 807.7 J/K/mol
365.2 K, Liquid | 809.1 J/K/mol
367.03 K, Liquid | 810.8 J/K/mol
368.86 K, Liquid | 812.7 J/K/mol
370 K, Liquid | 813.4 J/K/mol
